Results from patent publication US20120295349A1, “MAMMAL DEDICATED CELL LINE FROM HUMAN HEPATOCELLULAR CARCINOMA CELL” (Institute of Nuclear Energy Research Atomic Energy Council, …, priority 2009, published 2012).

Key:
Assay type in all cases: cell-based, human
[1] = system: HepG2 NF-κB/Luc/sr39tk cells; test: 131I-FIAU uptake experiment in co-transformed HepG2 NF-κB/Luc/sr39tk cells; conditions: reacted 2 h
Experimental: (§1) This experiment is provided to analyze uptake of 131I-FIAU drug by HepG2 NF-κB/Luc/sr39tk transformed cells. HepG2 NF-κB/Luc/sr39tk transformed cells were cultured overnight in a 6-well plate at 1×10^6 cells/well to attach the cells onto the plate. Then, 1 ml/well of labeled ^131I-FIAU was added into the cells and reacted for 2 h, and then the cells was washed with ice-cold PBS to quench the drug reaction, and detected for radioactivity. FIG. 4 is uptake effect of ^131I-FIAU in HepG2 NF-κB/Luc/sr39tk cell, in which X axis represents different transformed cell line; and Y axis is uptake amount of ^131I-FIAU per 0.1 million cells.

HepG2 cells = test: 131I-FIAU uptake experiment in HepG2 cells; conditions: reacted 2 h
Experimental: as §1

HepG2 NF-κB/Luc cells = test: 131I-FIAU uptake experiment in HepG2 NF-κB/Luc cells; conditions: reacted 2 h
Experimental: as §1

[2] = system: HepG2 NF-κB/Luc/sr39tk cells; test: Cytotoxic effect of GCV on HepG2 NF-κB/Luc/sr39tk cells (WST-1 cell survival); conditions: GCV 0.001-500 μM, 96 h
Experimental: HepG2 NF-κB/luc/sr39tk was cultured at 3000 cells/well in 96 well plate format to attach the cells onto the plate, then drug-treated for 48 h with different concentrations of GCV at 0.001, 0.01, 0.1, 1, 50, 100 and 500 μM respectively, and then treated with fresh culture media containing GCV drug, and after 96 h of experiment, the culture media containing GCV drug was removed, then chromogenic reaction was carried out with WST-1 at 37° C. for 2 h, and finally analyzed by enzyme-linked immunosorbent assay (ELISA) at wavelengths of 450 nm and 620 nm respectively and plotted to obtain cell survival rate for calculation of cytotoxic effect of drug.

Structure (SMILES) | uptake amount of 131I-FIAU per 0.1 million cells ([1]; 1—17 cell line) | uptake amount of 131I-FIAU per 0.1 million cells ([1]; 1—18 cell line) | uptake amount of 131I-FIAU per 0.1 million cells ([1]; 1—34 cell line) | uptake amount of 131I-FIAU per 0.1 million cells ([1]; 2—24 cell line) | uptake amount of 131I-FIAU per 0.1 million cells ([1]; 2—27 cell line) | uptake efficiency for 131I-FIAU (HepG2 cells) | uptake efficiency for 131I-FIAU (HepG2 NF-κB/Luc cells) | cytotoxic effect (cell survival rate) compared with control group (HepG2) ([2]; 1—18 cell line) | cytotoxic effect (cell survival rate) compared with control group (HepG2) ([2]; 2—24 cell line)
O=c1[nH]c(=O)n([C@@H]2O[C@H](CO)[C@@H](O)[C@@H]2F)cc1[131I] [131I-FIAU] | 20.1±0.41% | 41.5±1.00% | 27.2±1.07% | 22.9±0.68% | 12.9±0.45% | very low uptake efficiency | very low uptake efficiency | – | –
Nc1nc(O)c2ncn(COC(CO)CO)c2n1 [GCV, ganciclovir] | – | – | – | – | – | – | – | obvious cytotoxic effect | obvious cytotoxic effect
